Molecular target: PncA H57D mutant (Mycobacterium tuberculosis, UniProt I6XD65, H57D)
Type: biochemical

SMILES: NC(=O)c1cnccn1 [pyrazinamide]
- decrease in Km, H57D mutant versus wild type: 20 fold
- decrease in kcat (catalytic turnover), H57D mutant versus wild type: 38 fold
- kcat: 0.10 ± 0.01 s⁻¹

Reference: article PMC3029496 (Biochemistry, 2010)
